From patent US9506039B2, “Efficient method for establishing induced pluripotent stem cells” (Kyoto University, priority 2010, dated 2016)

system: human dermal fibroblasts (HDF: cell name 1616); experiment: iPS cell colony establishment, 3 genes (Oct3/4, Sox2, Klf4) plus added gene or compound; type: cell-based; details: Example 9, FIG. 9; Oct3/4, Sox2, Klf4 plus agent in medium (PS48 10 μM, CHIR99021 1 μM, Wnt3a 10 ng/ml); day 32
Description: The following genes were introduced into human dermal fibroblasts (HDF: cell name 1616, purchased from Cell applications, Inc.) in the same manner as in the aforementioned Example 1.
In addition, the culture condition was changed (5×10^5 cells/well), and the following genes were introduced into human dermal fibroblasts (HDF: cell name 1616, purchased from Cell applications, Inc.) in the same manner.
In the same manner as in the aforementioned Example 1, the following genes were introduced into dermal fibroblasts (HDF: cell name 1616) in the presence of each low-molecular-weight compound.
The following genes were introduced into dermal fibroblasts (HDF: cell name 1616) in the same manner as in the aforementioned Example 1.
The following genes were introduced into human dermal fibroblasts (HDF: cell name 1616) in the same manner as in the aforementioned Example 1.
Furthermore, the following genes were introduced into human dermal fibroblasts (HDF: cell name 1616).

Molecule	number of human iPS cell colonies
Cc1c[nH]c(-c2cnc(NCCNc3ccc(C#N)cn3)nc2-c2ccc(Cl)cc2Cl)n1 [CHIR99021]	tended to decrease
O=C(O)/C=C(/CCc1ccc(Cl)cc1)c1ccccc1 [PS48]	increased significantly
Wnt3a: Wnt3a purchased from R&D systems Inc., added to the medium (protein, UniProt P56704 19-352, looked up) Protein Wnt-3a: SYPIWWSLAVGPQYSSLGSQPILCASIPGLVPKQLRFCRNYVEIMPSVAEGIKIGIQECQHQFRGRRWNCTTVHDSLAIFGPVLDKATRESAFVHAIASAGVAFAVTRSCAEGTAAICGCSSRHQGSPGKGWKWGGCSEDIEFGGMVSREFADARENRPDARSAMNRHNNEAGRQAIASHMHLKCKCHGLSGSCEVKTCWWSQPDFRAIGDFLKDKYDSASEMVVEKHRESRGWVETLRPRYTYFKVPTERDLVYYEASPNFCEPNPETGSFGTRDRTCNVSSHGIDGCDLLCCGRGHNARAERRREKCRCVFHWCCYVSCQECTRVYDVHTCK	increased significantly
